The source of these data is ChEMBL document CHEMBL5543092, “Design, synthesis, and biological characterization of proteolysis targeting chimera (PROTACs) for the ataxia telangiectasia and RAD3-related (ATR) kinase” (Eur J Med Chem, 2024).

Data set [1] can be described thus: Chemical stability of the compound in at pH 7.4 measured at 6 hrs by HPLC based non-enzymatic stability assay. It counts as physicochemical. The conditions noted are these: buffer, read-out: Stability.
A short description of data set [2]: Chemical stability of the compound in at pH 7.4 measured at 12 hrs by HPLC based non-enzymatic stability assay. The format is physicochemical. Conditions: buffer, read-out: Stability.
A short description of data set [3]: Chemical stability of the compound in at pH 7.4 measured at 24 hrs by HPLC based non-enzymatic stability assay. The format is physicochemical. The conditions noted are these: buffer, read-out: Stability.
Data set [4] is described as follows: Chemical stability of the compound in at pH 7.4 measured at 48 hrs by HPLC based non-enzymatic stability assay. The conditions noted are these: buffer, read-out: Stability. It counts as physicochemical.
A short description of data set [5]: Chemical stability of the compound in at pH 7.4 measured at 72 hrs by HPLC based non-enzymatic stability assay. The format is physicochemical. The conditions noted are these: buffer, read-out: Stability.
The nature of data set [6]: Plasma protein binding in human plasma. The format is ADME, cell-free. The conditions noted are these: read-out: PPB (converted).
Data set [7] can be described thus: Plasma stability in human plasma assessed as compound remaining at 20 uM measured after 24 hrs by HPLC analysis. The format is ADME, cell-free. Conditions: read-out: Stability.
Another data set has as its target ATR/ATRIP (Homo sapiens, UniProt Q13535). Kind of data set: Inhibition of human ATR/ATRIP complex using GST-cMyc-p53 substrate measured after 30 mins by HTRF based non-radioactive in vitro assay. The format is protein-complex assay.
In a further data set the test system is HEK293. Briefly: Cytotoxicity against human HEK293 cells assessed as cell viability at 50 uM incubated for 24 hrs by Alamar Blue reagent based assay relative to control. The format is functional. The conditions noted are these: read-out: Activity.
Data set [8] deals with T1, Protein cereblon/Serine/threonine-protein kinase ATR (Homo sapiens) (UniProt Q13535+Q96SW2). Briefly: PROTAC activity at ATR/CRBN in patient derived human MIA PaCa-2 cells assessed as reduction in protein level at 500 nM measured after 24 hrs by immunoblot analysis relative to untreated control. The format is cell-based. More on the design: scale not given: the % may be the effect or the level left.

Data set [9] addresses T1, Protein cereblon/Serine/threonine-protein kinase ATR (Homo sapiens). Briefly: PROTAC activity at ATR/CRBN in patient derived human MIA PaCa-2 cells assessed as reduction in protein level at 2 uM measured after 24 hrs by immunoblot analysis relative to untreated control. The format is cell-based. More on the design: scale not given: the % may be the effect or the level left.

Data set [10] relates to MIA PaCa-2. Briefly: Induction of apoptosis in human MIA PaCa-2 cells assessed as cell death at 2 uM incubated for 24 hrs by Annexin-V/PI based flow cytometry. It counts as functional.
For data set [11], the system named is MIA PaCa-2. Briefly: Effect on GSPT1 expression in human MIA PaCa-2 cells at 0.5 to 2 uM incubated for 24 hrs by immunoblot analysis. The conditions noted are these: dose 0.5-2 µM. It counts as functional, cell-based.
Data set [12] has as its target T1, Protein cereblon/Serine/threonine-protein kinase ATR (Homo sapiens). Kind of data set: PROTAC activity at ATR/CRBN in human HeLa cells assessed as reduction in protein level at 500 nM measured after 24 hrs by immunoblot analysis relative to untreated control. The format is cell-based. More on the design: scale not given: the % may be the effect or the level left.

The target is the same in data set [13]. Kind of data set: PROTAC activity at ATR/CRBN in human HeLa cells assessed as reduction in p-ATR level at 500 nM measured after 24 hrs by immunoblot analysis relative to untreated control. It counts as cell-based. More on the design: scale not given: the % may be the effect or the level left.
Data set [14] has as its system HeLa. Briefly: Effect on ATM expression in human HeLa cells at 500 nM incubated for 24 hrs by immunoblot analysis. It counts as functional, cell-based.
In data set [15] the test system is HeLa. Kind of data set: Effect on DNA-PKcs expression in human HeLa cells at 500 nM incubated for 24 hrs by immunoblot analysis. The format is functional, cell-based.
The target of data set [16] is T1, Protein cereblon/Serine/threonine-protein kinase ATR (Homo sapiens). Briefly: PROTAC activity at ATR/CRBN in patient derived human MIA PaCa-2 cells assessed as reduction in protein level at 2 uM measured after 3 hrs in presence of 50 nM bortezomib by immunoblot analysis. The format is cell-based.
For data set [17] the target is unchanged. Kind of data set: PROTAC activity at ATR/CRBN in patient derived human MIA PaCa-2 cells assessed as reduction in protein level at 2 uM measured after 3 hrs in presence of 10 uM MG132 by immunoblot analysis. The format is cell-based.
The target is the same in data set [18]. Kind of data set: PROTAC activity at ATR/CRBN in patient derived human MIA PaCa-2 cells assessed as reduction in protein level at 2 uM measured after 24 hrs by immunoblot analysis relative to irinotecan. The format is cell-based. More on the design: scale not given: the % may be the effect or the level left.
Data set [19] has the same target. Kind of data set: PROTAC activity at ATR/CRBN in patient derived human MIA PaCa-2 cells assessed as reduction in irinotecan-induced p-CHK1 (S345) level at 2 uM measured after 24 hrs by immunoblot analysis relative to control. It counts as cell-based.
The test system of data set [20] is MIA PaCa-2. Briefly: Effect on CRBN expression in patient derived siCRBN transfected human MIA PaCa-2 cells at 2 uM measured after 24 hrs by immunoblot analysis. It counts as functional, cell-based.
The target in data set [21] is T1, Protein cereblon/Serine/threonine-protein kinase ATR (Homo sapiens). Kind of data set: PROTAC activity at ATR/CRBN in patient derived human MIA PaCa-2 cells assessed as reduction in p-ATR (T1989) level at 2 uM measured after 24 hrs by immunoblot analysis relative to control. The format is cell-based.
Data set [22] relates to MIA PaCa-2. Kind of data set: Induction of […] degradation in patient derived human MIA PaCa-2 cells assessed as reduction in protein level at 2 uM measured after 24 hrs by immunoblot analysis. It counts as functional, cell-based.
For data set [23], the target named is T1, Protein cereblon/Serine/threonine-protein kinase ATR (Homo sapiens). Kind of data set: PROTAC activity at ATR/CRBN in patient derived human MIA PaCa-2 cells assessed as reduction in protein level at 5 uM measured after 24 hrs by immunoblot analysis relative to untreated control. It counts as cell-based. More on the design: scale not given: the % may be the effect or the level left.

Data set [24] has the same target. Briefly: PROTAC activity at ATR/CRBN in patient derived human MIA PaCa-2 cells assessed as reduction in protein level at 1 uM measured after 24 hrs by immunoblot analysis relative to untreated control. The format is cell-based.
The target of data set [25] is T2, von Hippel-Lindau disease tumor suppressor/Serine/threonine-protein kinase ATR (Homo sapiens) (UniProt Q13535+P40337). Kind of data set: PROTAC activity at ATR/VHL in patient derived human MIA PaCa-2 cells assessed as protein degradation at 2 uM measured after 24 hrs by immunoblot analysis relative to untreated control. The format is cell-based.
Data set [26] deals with T2, von Hippel-Lindau disease tumor suppressor/Serine/threonine-protein kinase ATR (Homo sapiens). Briefly: PROTAC activity at ATR/VHL in patient derived human MIA PaCa-2 cells assessed as protein degradation at 5 uM measured after 24 hrs by immunoblot analysis relative to untreated control. It counts as cell-based.
Data set [27] has as its system MIA PaCa-2. Briefly: Effect on CRBN expression in patient derived siCRBN transfected human MIA PaCa-2 cells at 5 uM measured after 24 hrs by immunoblot analysis. It counts as functional, cell-based.

Active and inactive are the calls of the source. The calls are words filed in the database; no cut-off is given here.

T2 sequence (P40337 whole entry, looked up): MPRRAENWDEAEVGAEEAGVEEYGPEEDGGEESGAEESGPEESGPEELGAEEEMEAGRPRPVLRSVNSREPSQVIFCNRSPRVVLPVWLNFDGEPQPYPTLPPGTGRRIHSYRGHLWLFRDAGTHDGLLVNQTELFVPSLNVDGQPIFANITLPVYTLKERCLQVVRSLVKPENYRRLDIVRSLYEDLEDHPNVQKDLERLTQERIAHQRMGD
T2 sequence (Q13535 whole entry, looked up): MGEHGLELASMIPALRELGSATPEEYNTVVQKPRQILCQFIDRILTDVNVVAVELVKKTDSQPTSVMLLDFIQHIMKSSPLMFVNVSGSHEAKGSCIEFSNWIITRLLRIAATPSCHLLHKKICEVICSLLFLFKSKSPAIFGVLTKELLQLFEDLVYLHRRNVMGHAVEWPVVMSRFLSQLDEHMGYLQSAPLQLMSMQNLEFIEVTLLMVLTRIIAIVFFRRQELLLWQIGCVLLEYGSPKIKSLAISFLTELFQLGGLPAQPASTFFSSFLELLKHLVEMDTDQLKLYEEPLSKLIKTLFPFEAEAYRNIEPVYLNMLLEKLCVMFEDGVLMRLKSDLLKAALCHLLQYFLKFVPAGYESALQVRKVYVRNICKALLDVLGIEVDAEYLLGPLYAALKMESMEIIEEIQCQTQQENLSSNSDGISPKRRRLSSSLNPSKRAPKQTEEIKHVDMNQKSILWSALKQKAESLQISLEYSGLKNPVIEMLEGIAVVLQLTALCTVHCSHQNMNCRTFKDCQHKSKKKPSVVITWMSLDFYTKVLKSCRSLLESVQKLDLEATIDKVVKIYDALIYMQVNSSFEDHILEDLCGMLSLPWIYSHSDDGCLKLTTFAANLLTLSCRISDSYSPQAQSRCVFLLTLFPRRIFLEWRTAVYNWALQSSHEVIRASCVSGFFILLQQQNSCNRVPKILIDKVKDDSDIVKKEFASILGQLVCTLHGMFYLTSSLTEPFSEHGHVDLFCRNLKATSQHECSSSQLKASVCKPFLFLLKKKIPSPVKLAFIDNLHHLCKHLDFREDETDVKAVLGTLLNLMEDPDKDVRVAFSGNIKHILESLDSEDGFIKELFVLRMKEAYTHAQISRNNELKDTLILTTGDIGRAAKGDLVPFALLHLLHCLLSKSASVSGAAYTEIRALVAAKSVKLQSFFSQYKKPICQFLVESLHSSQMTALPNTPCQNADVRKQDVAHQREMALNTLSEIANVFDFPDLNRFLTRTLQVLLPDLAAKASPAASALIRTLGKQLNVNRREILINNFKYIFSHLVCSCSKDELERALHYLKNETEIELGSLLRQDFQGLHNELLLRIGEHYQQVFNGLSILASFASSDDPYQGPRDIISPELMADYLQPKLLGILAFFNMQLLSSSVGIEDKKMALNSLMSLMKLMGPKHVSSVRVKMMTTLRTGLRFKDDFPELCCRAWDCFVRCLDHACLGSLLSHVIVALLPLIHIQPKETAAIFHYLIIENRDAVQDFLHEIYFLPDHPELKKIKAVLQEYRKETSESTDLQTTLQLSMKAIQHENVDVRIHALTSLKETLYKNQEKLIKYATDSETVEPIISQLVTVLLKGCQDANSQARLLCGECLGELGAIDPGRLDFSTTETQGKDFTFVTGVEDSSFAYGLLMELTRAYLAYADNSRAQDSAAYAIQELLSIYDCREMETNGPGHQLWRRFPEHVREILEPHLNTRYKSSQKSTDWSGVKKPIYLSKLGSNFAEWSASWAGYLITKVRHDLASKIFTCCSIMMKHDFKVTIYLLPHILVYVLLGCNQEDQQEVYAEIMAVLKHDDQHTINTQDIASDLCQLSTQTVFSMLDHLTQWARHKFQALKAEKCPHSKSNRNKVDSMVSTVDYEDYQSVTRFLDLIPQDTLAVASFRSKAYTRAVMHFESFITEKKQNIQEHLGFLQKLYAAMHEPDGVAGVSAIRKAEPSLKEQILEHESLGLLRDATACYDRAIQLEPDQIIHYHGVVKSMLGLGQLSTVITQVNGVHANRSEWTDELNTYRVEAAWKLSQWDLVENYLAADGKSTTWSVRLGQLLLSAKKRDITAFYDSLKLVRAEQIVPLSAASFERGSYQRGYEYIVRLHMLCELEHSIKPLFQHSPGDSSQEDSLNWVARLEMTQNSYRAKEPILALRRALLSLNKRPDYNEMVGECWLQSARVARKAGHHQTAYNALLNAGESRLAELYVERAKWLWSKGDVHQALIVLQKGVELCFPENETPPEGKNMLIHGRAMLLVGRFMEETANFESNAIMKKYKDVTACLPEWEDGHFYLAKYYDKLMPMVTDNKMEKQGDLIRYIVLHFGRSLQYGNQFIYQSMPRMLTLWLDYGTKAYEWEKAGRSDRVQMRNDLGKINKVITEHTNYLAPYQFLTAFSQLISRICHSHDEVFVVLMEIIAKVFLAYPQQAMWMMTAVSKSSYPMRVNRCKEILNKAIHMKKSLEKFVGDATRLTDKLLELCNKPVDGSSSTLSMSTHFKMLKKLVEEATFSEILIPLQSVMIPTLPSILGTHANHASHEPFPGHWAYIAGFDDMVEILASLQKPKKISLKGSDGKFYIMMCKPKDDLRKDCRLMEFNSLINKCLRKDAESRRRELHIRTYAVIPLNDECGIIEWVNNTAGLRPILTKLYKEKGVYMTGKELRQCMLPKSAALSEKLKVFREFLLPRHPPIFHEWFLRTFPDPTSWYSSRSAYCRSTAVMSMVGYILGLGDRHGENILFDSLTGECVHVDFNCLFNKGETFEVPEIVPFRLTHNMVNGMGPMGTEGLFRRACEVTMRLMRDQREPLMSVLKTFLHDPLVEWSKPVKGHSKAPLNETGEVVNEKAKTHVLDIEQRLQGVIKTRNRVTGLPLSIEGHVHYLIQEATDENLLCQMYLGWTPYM
T1 sequence (Q13535 whole entry, looked up): as above
T1 sequence (Q96SW2 whole entry, looked up): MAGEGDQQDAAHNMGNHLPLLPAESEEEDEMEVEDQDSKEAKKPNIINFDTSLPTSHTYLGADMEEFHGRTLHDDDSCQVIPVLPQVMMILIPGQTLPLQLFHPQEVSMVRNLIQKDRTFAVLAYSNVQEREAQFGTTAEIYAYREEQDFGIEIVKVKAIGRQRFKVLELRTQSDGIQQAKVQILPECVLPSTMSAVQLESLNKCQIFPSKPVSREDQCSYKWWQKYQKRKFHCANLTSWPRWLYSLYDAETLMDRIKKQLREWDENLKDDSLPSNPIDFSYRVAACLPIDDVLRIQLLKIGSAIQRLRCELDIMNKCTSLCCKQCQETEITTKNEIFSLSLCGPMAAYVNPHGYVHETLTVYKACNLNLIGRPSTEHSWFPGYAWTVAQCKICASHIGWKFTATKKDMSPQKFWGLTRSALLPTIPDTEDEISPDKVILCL
ATR/ATRIP, sequence (Q13535 whole entry): as the sequence (Q13535 whole entry, looked up) above
ATR/ATRIP, sequence (Q8WXE1 whole entry, further chain): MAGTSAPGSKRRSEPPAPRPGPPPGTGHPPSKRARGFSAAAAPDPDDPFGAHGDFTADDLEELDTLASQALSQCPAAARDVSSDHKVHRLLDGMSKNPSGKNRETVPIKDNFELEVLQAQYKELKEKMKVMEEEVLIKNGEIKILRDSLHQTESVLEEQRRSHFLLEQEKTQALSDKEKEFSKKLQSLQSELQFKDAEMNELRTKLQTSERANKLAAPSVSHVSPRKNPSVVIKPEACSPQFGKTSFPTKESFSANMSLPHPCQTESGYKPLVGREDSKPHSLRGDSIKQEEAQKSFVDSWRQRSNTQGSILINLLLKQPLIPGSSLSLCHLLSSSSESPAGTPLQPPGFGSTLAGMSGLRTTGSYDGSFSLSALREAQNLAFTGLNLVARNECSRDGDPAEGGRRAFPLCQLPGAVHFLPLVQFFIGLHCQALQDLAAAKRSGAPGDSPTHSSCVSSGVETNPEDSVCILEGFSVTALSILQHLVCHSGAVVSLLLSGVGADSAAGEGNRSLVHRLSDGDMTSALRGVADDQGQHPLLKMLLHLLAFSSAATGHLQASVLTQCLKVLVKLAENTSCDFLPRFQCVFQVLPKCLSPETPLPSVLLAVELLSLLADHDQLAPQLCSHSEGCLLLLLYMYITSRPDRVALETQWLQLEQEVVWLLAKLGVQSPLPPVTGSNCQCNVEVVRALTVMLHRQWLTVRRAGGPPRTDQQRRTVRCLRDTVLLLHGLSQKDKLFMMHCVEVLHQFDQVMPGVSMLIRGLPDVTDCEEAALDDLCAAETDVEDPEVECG

Regarding `CNS(=O)(=O)c1ccc(-c2cnc(N)c(C(=O)Nc3ccccc3)n2)cc1`, the remaining at 6 h in [1] was 99%. Besides, the remaining at 12 h in [2] is 100%. The remaining at 24 h in data set [3] was 100%. In addition, the remaining at 48 h in data set [4] stood at 102%. Moreover, the remaining at 72 h in data set [5] turned out to be 104%. For the same compound, the fraction unbound in [6] is 0.225. Besides, in [7], the remaining at 24 h, 20 µM was greater than 92%. Also, the IC50 at ATR/ATRIP was found to be 1000 nM. In the data set with HEK293, the viability at 50 µM came out at 83.7%.

With `Nc1ncc(-c2ccc(S(=O)(=O)NCCCCCC(=O)NCCCC#Cc3cccc4c3CN(C3CCC(=O)NC3=O)C4=O)cc2)nc1C(=O)Nc1ccccc1` (centres undefined), the remaining at 6 h in data set [1] worked out at 102%. Also, the remaining at 12 h in [2] came out at 104%. Further, in data set [3], the remaining at 24 h was determined as 106%. In addition, the remaining at 48 h in data set [4] is 110%. Besides, the remaining at 72 h in [5] was determined as 115%. Moreover, the fraction unbound in [6] is 0.106. Also, in data set [7], the remaining at 24 h, 20 µM worked out at 75%. Also, on ATR/ATRIP, the IC50 is greater than 10000 nM. Further, the Activity was determined as 40% in [8]; 40% in [9]; 60% in [12]; 60% in data set [13]; 80% in data set [18]. Further, the outcome (with MIA PaCa-2 [10]; in the data set on MIA PaCa-2 [11]; in the data set on HeLa [14]; in the data set on HeLa [15]; in [16]; in [17]) was inactive. Also, in the data set on MIA PaCa-2 [20], the outcome was inactive. The results for the fold change (FC) in data set [19] and in data set [21] were 0.5 and 0.1, respectively. In addition, the viability at 50 µM with HEK293 was determined as 77.1%.

As for `CS(=O)(=O)c1ccc(-c2cnc(N)c(C(=O)Nc3ccccc3)n2)cc1`, in the data set with MIA PaCa-2 [22], the result was inactive.

As for `Nc1ncc(-c2ccc(S(=O)(=O)NCCCCCC(=O)N3CCN(c4ccc5c(c4)C(=O)N(C4CCC(=O)NC4=O)C5=O)CC3)cc2)nc1C(=O)Nc1ccccc1` (centres undefined), the remaining at 6 h in [1] is 101%. The remaining at 12 h in data set [2] was 101%. Further, the remaining at 24 h in [3] turned out to be 96%. In addition, in [4], the remaining at 48 h came to 87%. Also, in data set [5], the remaining at 72 h came to 72%. Also, the Activity in data set [23] was 40%. For the same compound, the viability at 50 µM with HEK293 came to 96%.

`Nc1ncc(-c2ccc(S(=O)(=O)NCCCCCCC(=O)NCCCC#Cc3cccc4c3CN(C3CCC(=O)NC3=O)C4=O)cc2)nc1C(=O)Nc1ccccc1` (centres undefined): in data set [1], the remaining at 6 h was found to be 102%. In addition, the remaining at 12 h in data set [2] was determined as 103%. Besides, the remaining at 24 h in data set [3] was found to be 105%. For the same compound, the remaining at 48 h in data set [4] was found to be 105%. In data set [5], the remaining at 72 h stood at 109%. Besides, the outcome in data set [24] was Active. The viability at 50 µM in the data set on HEK293 came to 109%.

With `Cc1ncsc1-c1ccc(CNC(=O)[C@@H]2C[C@@H](O)CN2C(=O)[C@@H](NC(=O)CCCCCNS(=O)(=O)c2ccc(-c3cnc(N)c(C(=O)Nc4ccccc4)n3)cc2)C(C)(C)C)cc1`, the remaining at 6 h in data set [1] turned out to be 99%. In addition, in data set [2], the remaining at 12 h stood at 99%. The remaining at 24 h in [3] is 100%. In addition, the remaining at 48 h in data set [4] was found to be 100%. Besides, the remaining at 72 h in data set [5] amounted to 100%. In addition, the result in data set [25] and in data set [26] was inactive. In the data set with HEK293, the viability at 50 µM came to 60.3%.

On to `CCc1c2c(nc3ccc(OC(=O)N4CCC(N5CCCCC5)CC4)cc13)-c1cc3c(c(=O)n1C2)COC(=O)[C@]3(O)CC`, for which the outcome in the data set on MIA PaCa-2 [27] was inactive.

As for `Cc1ncsc1-c1ccc(CNC(=O)[C@@H]2C[C@@H](O)CN2C(=O)[C@@H](NC(=O)CCOCCOCCOCCNS(=O)(=O)c2ccc(-c3cnc(N)c(C(=O)Nc4ccccc4)n3)cc2)C(C)(C)C)cc1`, the remaining at 6 h in data set [1] stood at 100%. Also, the remaining at 12 h in [2] is 100%. Besides, the remaining at 24 h in data set [3] came to 102%. Moreover, the remaining at 48 h in [4] is 103%. In [5], the remaining at 72 h turned out to be 105%. For the same compound, the outcome in data set [25] and in [26] was inactive. Moreover, the viability at 50 µM in the data set with HEK293 amounted to 45.7%.
